How the values were obtained:
MKNK2 = MKNK2 (Homo sapiens, UniProt Q9HBH9); experiment: biochemical; parameters: KINOMEscan active-site competition binding panel (468 kinase assays), per cent of control at 1000 nM; conditions: KINOMEscan per cent of control (binding competition); read-out: Percent Control
Description: (§1) Figure S7 / Percent Control

WEE2 = WEE2 (Homo sapiens, UniProt P0C1S8); experiment: biochemical; parameters: KINOMEscan active-site competition binding panel (468 kinase assays), per cent of control at 1000 nM; conditions: KINOMEscan per cent of control (binding competition); read-out: Percent Control
Description: as §1

CHEK1 = CHEK1 (Homo sapiens, UniProt O14757); experiment: biochemical; parameters: KINOMEscan active-site competition binding panel (468 kinase assays), per cent of control at 1000 nM; conditions: KINOMEscan per cent of control (binding competition); read-out: Percent Control
Description: as §1

PCTK2 = biological target: T1, PCTK2 (Homo sapiens, UniProt Q00537); experiment: biochemical; parameters: KINOMEscan active-site competition binding panel (468 kinase assays), per cent of control at 1000 nM; conditions: KINOMEscan per cent of control (binding competition); read-out: Percent Control
T1 construct: gene CDK17
Description: as §1

DCAMKL2 = biological target: T2, DCAMKL2 (Homo sapiens, UniProt Q8N568); experiment: biochemical; parameters: KINOMEscan active-site competition binding panel (468 kinase assays), per cent of control at 1000 nM; conditions: KINOMEscan per cent of control (binding competition); read-out: Percent Control
T2 construct: gene DCLK2
Description: as §1

BMPR1B = BMPR1B (Homo sapiens, UniProt O00238); experiment: biochemical; parameters: KINOMEscan active-site competition binding panel (468 kinase assays), per cent of control at 1000 nM; conditions: KINOMEscan per cent of control (binding competition); read-out: Percent Control
Description: as §1

[1] = biological target: T3, RPS6KA5(Kin.Dom.2-C-terminal) (Homo sapiens, UniProt O75582); experiment: biochemical; parameters: KINOMEscan active-site competition binding panel (468 kinase assays), per cent of control at 1000 nM; conditions: KINOMEscan per cent of control (binding competition); read-out: Percent Control
T3 construct: Kin.Dom.2-C-terminal
Description: as §1

CSNK1A1L = CSNK1A1L (Homo sapiens, UniProt Q8N752); experiment: biochemical; parameters: KINOMEscan active-site competition binding panel (468 kinase assays), per cent of control at 1000 nM; conditions: KINOMEscan per cent of control (binding competition); read-out: Percent Control
CSNK1A1L, sequence (Q8N752 whole entry): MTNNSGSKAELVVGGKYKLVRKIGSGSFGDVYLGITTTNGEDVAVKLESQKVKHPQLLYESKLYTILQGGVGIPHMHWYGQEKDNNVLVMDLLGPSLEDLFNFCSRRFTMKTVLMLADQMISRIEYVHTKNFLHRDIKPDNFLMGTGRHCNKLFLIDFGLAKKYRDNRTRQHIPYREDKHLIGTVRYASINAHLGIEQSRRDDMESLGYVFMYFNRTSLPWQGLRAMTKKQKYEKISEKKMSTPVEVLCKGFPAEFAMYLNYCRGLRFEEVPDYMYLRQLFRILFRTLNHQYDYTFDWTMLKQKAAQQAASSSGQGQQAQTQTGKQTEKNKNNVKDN
Description: as §1

ASK2 = biological target: T4, ASK2 (Homo sapiens, UniProt O95382); experiment: biochemical; parameters: KINOMEscan active-site competition binding panel (468 kinase assays), per cent of control at 1000 nM; conditions: KINOMEscan per cent of control (binding competition); read-out: Percent Control
T4 construct: gene MAP3K6
Description: as §1

PIP5K1C = PIP5K1C (Homo sapiens, UniProt O60331); experiment: biochemical; parameters: KINOMEscan active-site competition binding panel (468 kinase assays), per cent of control at 1000 nM; conditions: KINOMEscan per cent of control (binding competition); read-out: Percent Control
Description: as §1

PAK6 = PAK6 (Homo sapiens, UniProt Q9NQU5); experiment: biochemical; parameters: KINOMEscan active-site competition binding panel (468 kinase assays), per cent of control at 1000 nM; conditions: KINOMEscan per cent of control (binding competition); read-out: Percent Control
Description: as §1

PHKG1 = PHKG1 (Homo sapiens, UniProt Q16816); experiment: biochemical; parameters: KINOMEscan active-site competition binding panel (468 kinase assays), per cent of control at 1000 nM; conditions: KINOMEscan per cent of control (binding competition); read-out: Percent Control
PHKG1, sequence (Q16816 whole entry): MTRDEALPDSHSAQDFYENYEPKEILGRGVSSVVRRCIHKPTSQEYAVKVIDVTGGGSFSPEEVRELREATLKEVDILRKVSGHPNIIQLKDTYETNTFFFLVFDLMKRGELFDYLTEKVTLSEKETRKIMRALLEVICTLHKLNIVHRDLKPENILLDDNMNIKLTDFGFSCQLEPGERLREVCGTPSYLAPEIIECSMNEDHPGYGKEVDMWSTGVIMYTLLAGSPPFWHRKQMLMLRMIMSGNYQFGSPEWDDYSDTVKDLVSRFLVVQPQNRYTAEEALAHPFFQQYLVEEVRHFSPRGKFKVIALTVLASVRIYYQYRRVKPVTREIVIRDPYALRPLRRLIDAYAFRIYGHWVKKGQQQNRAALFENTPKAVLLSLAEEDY
Description: as §1

ADCK4 = biological target: T5, ADCK4 (Homo sapiens, UniProt Q96D53); experiment: biochemical; parameters: KINOMEscan active-site competition binding panel (468 kinase assays), per cent of control at 1000 nM; conditions: KINOMEscan per cent of control (binding competition); read-out: Percent Control
T5 construct: gene COQ8B
Description: as §1

TLK2 = TLK2 (Homo sapiens, UniProt Q86UE8); experiment: biochemical; parameters: KINOMEscan active-site competition binding panel (468 kinase assays), per cent of control at 1000 nM; conditions: KINOMEscan per cent of control (binding competition); read-out: Percent Control
Description: as §1

ACVR2B = ACVR2B (Homo sapiens, UniProt Q13705); experiment: biochemical; parameters: KINOMEscan active-site competition binding panel (468 kinase assays), per cent of control at 1000 nM; conditions: KINOMEscan per cent of control (binding competition); read-out: Percent Control
Description: as §1

MAP3K4 = MAP3K4 (Homo sapiens, UniProt Q9Y6R4); experiment: biochemical; parameters: KINOMEscan active-site competition binding panel (468 kinase assays), per cent of control at 1000 nM; conditions: KINOMEscan per cent of control (binding competition); read-out: Percent Control
MAP3K4, sequence (Q9Y6R4 whole entry): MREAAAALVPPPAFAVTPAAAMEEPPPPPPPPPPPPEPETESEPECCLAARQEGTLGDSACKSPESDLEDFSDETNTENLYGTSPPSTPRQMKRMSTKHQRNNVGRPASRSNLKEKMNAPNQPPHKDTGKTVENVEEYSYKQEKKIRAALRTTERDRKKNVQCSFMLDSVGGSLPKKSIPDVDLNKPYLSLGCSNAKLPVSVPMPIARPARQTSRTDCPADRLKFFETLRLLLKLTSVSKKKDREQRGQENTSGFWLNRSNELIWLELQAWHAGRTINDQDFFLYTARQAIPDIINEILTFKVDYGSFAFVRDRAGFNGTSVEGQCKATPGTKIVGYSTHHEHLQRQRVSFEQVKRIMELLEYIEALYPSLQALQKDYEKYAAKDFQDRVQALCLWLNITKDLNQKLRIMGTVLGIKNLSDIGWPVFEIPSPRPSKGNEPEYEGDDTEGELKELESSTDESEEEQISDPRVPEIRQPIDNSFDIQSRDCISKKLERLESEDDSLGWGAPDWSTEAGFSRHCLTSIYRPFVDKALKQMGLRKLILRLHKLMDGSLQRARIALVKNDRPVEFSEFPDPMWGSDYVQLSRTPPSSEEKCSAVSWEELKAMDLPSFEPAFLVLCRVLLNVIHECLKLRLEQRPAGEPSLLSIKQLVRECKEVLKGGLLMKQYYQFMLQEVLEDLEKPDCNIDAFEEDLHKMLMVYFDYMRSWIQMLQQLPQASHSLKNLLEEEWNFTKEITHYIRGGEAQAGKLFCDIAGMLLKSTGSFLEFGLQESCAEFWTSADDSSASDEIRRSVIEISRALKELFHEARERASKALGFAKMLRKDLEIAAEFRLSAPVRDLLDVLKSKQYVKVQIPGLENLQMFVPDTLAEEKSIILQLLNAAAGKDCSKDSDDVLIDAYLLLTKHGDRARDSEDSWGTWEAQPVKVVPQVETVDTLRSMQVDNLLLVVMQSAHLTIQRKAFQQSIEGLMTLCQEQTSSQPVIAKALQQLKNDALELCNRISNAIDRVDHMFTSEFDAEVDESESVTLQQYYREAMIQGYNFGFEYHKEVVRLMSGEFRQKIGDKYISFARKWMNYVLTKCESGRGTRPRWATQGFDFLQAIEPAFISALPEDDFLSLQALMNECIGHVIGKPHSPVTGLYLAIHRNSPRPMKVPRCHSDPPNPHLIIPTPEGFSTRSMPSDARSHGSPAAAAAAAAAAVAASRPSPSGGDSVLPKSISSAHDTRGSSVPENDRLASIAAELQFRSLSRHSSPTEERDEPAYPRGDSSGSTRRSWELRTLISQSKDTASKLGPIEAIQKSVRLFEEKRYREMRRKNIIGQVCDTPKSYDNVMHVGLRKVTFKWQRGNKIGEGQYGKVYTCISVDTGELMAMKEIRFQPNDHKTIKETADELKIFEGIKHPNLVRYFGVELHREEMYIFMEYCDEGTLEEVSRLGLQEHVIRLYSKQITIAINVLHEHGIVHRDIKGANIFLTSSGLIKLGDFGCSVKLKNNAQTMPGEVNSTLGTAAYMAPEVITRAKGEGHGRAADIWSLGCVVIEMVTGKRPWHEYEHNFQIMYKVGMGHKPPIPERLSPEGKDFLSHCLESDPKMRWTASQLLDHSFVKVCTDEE
Description: as §1

STK35 = STK35 (Homo sapiens, UniProt Q8TDR2); experiment: biochemical; parameters: KINOMEscan active-site competition binding panel (468 kinase assays), per cent of control at 1000 nM; conditions: KINOMEscan per cent of control (binding competition); read-out: Percent Control
Description: as §1

CHEK2 = CHEK2 (Homo sapiens, UniProt O96017); experiment: biochemical; parameters: KINOMEscan active-site competition binding panel (468 kinase assays), per cent of control at 1000 nM; conditions: KINOMEscan per cent of control (binding competition); read-out: Percent Control
CHEK2, sequence (O96017 whole entry): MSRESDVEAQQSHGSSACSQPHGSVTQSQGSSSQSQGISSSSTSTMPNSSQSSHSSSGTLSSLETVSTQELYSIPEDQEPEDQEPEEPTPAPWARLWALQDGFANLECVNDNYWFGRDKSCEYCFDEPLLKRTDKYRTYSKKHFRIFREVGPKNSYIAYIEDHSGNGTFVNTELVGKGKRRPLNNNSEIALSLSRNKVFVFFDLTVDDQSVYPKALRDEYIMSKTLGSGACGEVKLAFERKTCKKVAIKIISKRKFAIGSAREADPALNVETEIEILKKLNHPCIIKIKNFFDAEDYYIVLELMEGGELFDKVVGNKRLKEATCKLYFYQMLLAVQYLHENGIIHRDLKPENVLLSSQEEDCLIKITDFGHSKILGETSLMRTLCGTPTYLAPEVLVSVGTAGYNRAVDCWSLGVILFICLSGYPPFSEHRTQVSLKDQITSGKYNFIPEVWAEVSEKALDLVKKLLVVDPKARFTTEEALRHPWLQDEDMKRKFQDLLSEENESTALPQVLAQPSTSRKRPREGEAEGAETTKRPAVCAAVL
Description: as §1

[2] = biological target: recombinant purified human Mi-2β protein (Homo sapiens, UniProt Q14839); experiment: FRET-based nucleosome repositioning assay (EpiDyne-FRET); conditions: for IC50: IC50 against Mi-2β
recombinant purified human Mi-2β protein, sequence (Q14839 whole entry): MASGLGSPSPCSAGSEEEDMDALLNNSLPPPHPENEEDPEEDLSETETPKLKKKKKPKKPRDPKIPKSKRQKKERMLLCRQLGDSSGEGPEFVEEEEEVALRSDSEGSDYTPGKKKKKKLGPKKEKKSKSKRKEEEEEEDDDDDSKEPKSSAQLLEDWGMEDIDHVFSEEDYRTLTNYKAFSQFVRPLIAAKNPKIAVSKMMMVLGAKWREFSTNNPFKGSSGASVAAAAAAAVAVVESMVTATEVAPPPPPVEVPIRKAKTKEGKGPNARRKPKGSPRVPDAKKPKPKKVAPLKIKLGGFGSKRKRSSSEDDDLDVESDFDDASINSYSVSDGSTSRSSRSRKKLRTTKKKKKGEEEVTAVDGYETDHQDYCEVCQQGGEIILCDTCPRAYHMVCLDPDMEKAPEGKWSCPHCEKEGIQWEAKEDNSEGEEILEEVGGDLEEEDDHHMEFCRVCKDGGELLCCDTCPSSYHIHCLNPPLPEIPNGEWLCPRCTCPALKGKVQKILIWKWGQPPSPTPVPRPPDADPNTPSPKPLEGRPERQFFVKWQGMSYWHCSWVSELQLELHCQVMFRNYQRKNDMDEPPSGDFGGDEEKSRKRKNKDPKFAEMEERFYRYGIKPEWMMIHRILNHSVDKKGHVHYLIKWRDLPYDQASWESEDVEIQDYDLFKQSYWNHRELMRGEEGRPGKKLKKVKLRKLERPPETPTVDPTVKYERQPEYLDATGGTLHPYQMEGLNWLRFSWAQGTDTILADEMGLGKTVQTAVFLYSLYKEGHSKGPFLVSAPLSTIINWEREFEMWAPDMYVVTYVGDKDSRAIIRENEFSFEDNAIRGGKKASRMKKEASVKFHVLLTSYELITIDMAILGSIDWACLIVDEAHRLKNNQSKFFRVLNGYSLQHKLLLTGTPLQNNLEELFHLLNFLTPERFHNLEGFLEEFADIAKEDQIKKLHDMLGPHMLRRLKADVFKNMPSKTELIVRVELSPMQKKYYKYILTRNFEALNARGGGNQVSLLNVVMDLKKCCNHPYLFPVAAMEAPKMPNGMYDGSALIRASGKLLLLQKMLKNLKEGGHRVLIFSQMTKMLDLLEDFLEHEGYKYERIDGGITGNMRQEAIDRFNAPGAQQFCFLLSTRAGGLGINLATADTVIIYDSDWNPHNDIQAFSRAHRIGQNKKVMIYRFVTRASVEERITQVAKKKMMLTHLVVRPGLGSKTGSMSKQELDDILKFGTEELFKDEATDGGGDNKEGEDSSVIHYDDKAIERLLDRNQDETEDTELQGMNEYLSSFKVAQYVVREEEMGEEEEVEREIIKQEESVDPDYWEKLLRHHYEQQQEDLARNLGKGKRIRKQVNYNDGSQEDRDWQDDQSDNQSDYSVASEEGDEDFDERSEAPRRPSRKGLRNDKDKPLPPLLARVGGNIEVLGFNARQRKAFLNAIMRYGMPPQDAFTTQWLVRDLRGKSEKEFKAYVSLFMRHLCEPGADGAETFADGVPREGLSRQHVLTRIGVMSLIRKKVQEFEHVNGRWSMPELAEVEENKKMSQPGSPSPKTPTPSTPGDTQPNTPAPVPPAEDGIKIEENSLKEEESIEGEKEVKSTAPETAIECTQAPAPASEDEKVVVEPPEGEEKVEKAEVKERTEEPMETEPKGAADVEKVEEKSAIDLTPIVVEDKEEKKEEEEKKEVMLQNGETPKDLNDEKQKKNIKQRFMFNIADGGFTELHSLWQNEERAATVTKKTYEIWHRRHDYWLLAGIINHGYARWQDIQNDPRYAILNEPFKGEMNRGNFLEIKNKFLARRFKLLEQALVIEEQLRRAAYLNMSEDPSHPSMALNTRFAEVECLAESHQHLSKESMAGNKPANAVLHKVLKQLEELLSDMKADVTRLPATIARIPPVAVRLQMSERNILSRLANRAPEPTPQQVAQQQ

B16F10 cell graft = experiment: Antibody-mediated CD8 T-cell depletion and Z36-MP5 treatment; format: in vivo, mouse; conditions: Z36-MP5 30 mg/kg, 200 µg anti-CD8

Question: `Cn1c(=O)[nH]c2ccc(-c3cccc(C(=O)NC4CCn5ccnc5C4)c3)cc21` (stereo not drawn) [Z36-MP5] was tested. Which remaining binding at 1 µM (MKNK2) did it give?
Answer: 82%

Question: And the remaining binding at 1 µM (WEE2)?
Answer: 96%

Question: What about the remaining binding at 1 µM (CHEK1) of the same molecule?
Answer: 93%

Question: And the remaining binding at 1 µM (PCTK2)?
Answer: 94%

Question: And the remaining binding at 1 µM (DCAMKL2)?
Answer: 90%

Question: And the remaining binding at 1 µM (BMPR1B)?
Answer: 55%

Question: And the remaining binding at 1 µM [1]?
Answer: 51%

Question: And the remaining binding at 1 µM (CSNK1A1L)?
Answer: 99%

Question: What about the remaining binding at 1 µM (ASK2) of the same molecule?
Answer: 93%

Question: And the remaining binding at 1 µM (PIP5K1C)?
Answer: 66%

Question: What about the remaining binding at 1 µM (PAK6) of the same molecule?
Answer: 91%

Question: What about the remaining binding at 1 µM (PHKG1) of the same molecule?
Answer: 90%

Question: What about the remaining binding at 1 µM (ADCK4) of the same molecule?
Answer: 64%

Question: What about the remaining binding at 1 µM (TLK2) of the same molecule?
Answer: 53%

Question: And the remaining binding at 1 µM (ACVR2B)?
Answer: 91%

Question: And the remaining binding at 1 µM (MAP3K4)?
Answer: 63%

Question: What about the remaining binding at 1 µM (STK35) of the same molecule?
Answer: 81%

Question: And the remaining binding at 1 µM (CHEK2)?
Answer: 58%

Question: And the “inhibition of Mi-2β ATPase” value ([2]; 1 µM)?
Answer: completely inhibits

Question: And the IC50 ([2]; ATP 10 μM)?
Answer: 79 ± 13 nM

Question: And the IC50 ([2]; ATP 30 μM)?
Answer: 198 ± 33 nM

Question: What about the IC50 ([2]; ATP 100 μM) of the same molecule?
Answer: 576 ± 86 nM

Question: What about the IC50 ([2]; ATP 300 μM) of the same molecule?
Answer: 1660 ± 358 nM

Question: And the IC50 ([2]; Mi-2β chromatin modulatory activity, n = 3)?
Answer: 82 ± 13 nM

Question: And the mode of inhibition ([2]; IC50 increased with ATP 10–300 µM)?
Answer: ATP-competitive inhibitor

Question: What about the “potency relative to the original compound Z36” value ([2]; ratio of IC50 values) of the same molecule?
Answer: ~ 85 fold

Question: And the “effectiveness after neutralization of CD8 T cells” value (B16F10 cell graft)?
Answer: completely abolished the effectiveness
